Values of other authors in patent US6908953B2, “Polymerizable compositions based on epoxides” (ESPE Dental AG, priority 1998, dated 2005).

What was measured:
[1] = in vitro tests, prior-art epoxide monomers
[2] = prior-art epoxide monomers

SMILES | Mutagenic properties [1] | Cytotoxicity [2]
O=C(OCC1CCC2OC2C1)C1CCC2OC2C1 (stereo not shown) [3,4-epoxycyclohexyl-methyl 3,4-epoxycyclohexanecarboxylate] | mutagenic properties | highly cytotoxic
O=C(CCCCC(=O)OC1CCC2OC2C1)OC1CCC2OC2C1 (stereo not shown) [bis(3,4-epoxycyclohexyl adipate)] | mutagenic properties | highly cytotoxic
